Holding throughout (assay type): biochemical
One test concerns the target T1, SIK2 (Homo sapiens, UniProt Q9H0K1).
T1 construct: purchased Life Technologies
Kind of test: SIK2 kinase assay, IMAP fluorescence polarization. The conditions noted are these: 50 or 100 μM ATP, average. Put shortly:
(§1)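 IMAP FP format: 0.6-13 nM kinase, 100 nM FAM-peptide substrate, 50 or 100 μM ATP, Tris pH 7.2/4 mM MgCl2/0.2% BSA/2 mM DTT, 60 min RT. Compounds 0.00005-1 μM. Stop with 0.25% IMAP binding reagent (buffer A:B 85:15; 30:70 for Src).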
(Polarisation of emitted light reports the rotation of a fluorescent probe.)

Another test deals with T2, SIK1 (Homo sapiens, UniProt P57059).
T2 construct: purchased Life Technologies
Kind of test: SIK1 kinase assay, IMAP fluorescence polarization. The conditions noted are these: 50 or 100 μM ATP, average. The essentials:
as §1

Another test addresses T3, SIK3 (Homo sapiens, UniProt Q9Y2K2).
T3 construct: purchased Life Technologies
Nature of the test: SIK3 kinase assay, IMAP fluorescence polarization. The note with it: 50 or 100 μM ATP, average. Put shortly:
as §1

In another test the target is T4, Abl (Homo sapiens, UniProt P00519).
T4 construct: purchased Life Technologies
Kind of test: Abl kinase assay, IMAP fluorescence polarization. The conditions noted are these: 50 or 100 μM ATP, average. The essentials:
as §1

In a further test the target is T5, Src (Homo sapiens, UniProt P12931).
T5 construct: purchased Life Technologies
Kind of test: Src kinase assay, IMAP fluorescence polarization. The note with it: 50 or 100 μM ATP, average. The essentials: as §1

The target in another test is T6, EPHA2 (Homo sapiens, UniProt P29317).
T6 construct: purchased Life Technologies
Kind of test: EPHA2 kinase assay, IMAP fluorescence polarization. The conditions noted are these: 50 or 100 μM ATP, Tris pH 8.5, average.

Broadly, the Ki is the equilibrium dissociation constant of an inhibitor or competing ligand from its target. Higher therefore signals lower affinity.

T1 sequence (Q9H0K1 whole entry): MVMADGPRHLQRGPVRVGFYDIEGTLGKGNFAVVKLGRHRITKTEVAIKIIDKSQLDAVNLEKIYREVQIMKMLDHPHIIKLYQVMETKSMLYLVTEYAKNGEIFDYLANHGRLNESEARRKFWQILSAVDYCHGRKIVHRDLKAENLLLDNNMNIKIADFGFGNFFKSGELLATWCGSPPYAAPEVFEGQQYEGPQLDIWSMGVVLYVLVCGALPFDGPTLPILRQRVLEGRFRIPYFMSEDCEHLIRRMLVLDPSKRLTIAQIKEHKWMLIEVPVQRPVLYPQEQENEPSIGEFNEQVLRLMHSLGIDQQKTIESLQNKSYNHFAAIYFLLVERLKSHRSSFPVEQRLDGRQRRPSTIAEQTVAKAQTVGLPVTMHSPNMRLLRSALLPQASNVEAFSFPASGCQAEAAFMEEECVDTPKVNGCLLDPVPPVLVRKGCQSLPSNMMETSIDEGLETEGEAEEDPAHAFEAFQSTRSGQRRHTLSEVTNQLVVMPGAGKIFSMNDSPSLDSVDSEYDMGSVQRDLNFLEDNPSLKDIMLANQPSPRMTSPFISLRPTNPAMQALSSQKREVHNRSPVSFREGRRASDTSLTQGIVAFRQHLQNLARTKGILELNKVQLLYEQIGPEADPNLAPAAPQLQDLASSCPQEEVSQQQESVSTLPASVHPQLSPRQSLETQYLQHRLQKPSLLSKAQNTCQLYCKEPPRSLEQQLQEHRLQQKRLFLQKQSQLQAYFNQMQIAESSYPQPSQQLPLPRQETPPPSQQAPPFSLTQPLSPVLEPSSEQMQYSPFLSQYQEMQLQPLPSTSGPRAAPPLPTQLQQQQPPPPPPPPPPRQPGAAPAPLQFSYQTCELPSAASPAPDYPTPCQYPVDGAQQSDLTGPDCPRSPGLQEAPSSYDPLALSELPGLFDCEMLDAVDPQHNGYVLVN
T6 sequence (P29317 24-976): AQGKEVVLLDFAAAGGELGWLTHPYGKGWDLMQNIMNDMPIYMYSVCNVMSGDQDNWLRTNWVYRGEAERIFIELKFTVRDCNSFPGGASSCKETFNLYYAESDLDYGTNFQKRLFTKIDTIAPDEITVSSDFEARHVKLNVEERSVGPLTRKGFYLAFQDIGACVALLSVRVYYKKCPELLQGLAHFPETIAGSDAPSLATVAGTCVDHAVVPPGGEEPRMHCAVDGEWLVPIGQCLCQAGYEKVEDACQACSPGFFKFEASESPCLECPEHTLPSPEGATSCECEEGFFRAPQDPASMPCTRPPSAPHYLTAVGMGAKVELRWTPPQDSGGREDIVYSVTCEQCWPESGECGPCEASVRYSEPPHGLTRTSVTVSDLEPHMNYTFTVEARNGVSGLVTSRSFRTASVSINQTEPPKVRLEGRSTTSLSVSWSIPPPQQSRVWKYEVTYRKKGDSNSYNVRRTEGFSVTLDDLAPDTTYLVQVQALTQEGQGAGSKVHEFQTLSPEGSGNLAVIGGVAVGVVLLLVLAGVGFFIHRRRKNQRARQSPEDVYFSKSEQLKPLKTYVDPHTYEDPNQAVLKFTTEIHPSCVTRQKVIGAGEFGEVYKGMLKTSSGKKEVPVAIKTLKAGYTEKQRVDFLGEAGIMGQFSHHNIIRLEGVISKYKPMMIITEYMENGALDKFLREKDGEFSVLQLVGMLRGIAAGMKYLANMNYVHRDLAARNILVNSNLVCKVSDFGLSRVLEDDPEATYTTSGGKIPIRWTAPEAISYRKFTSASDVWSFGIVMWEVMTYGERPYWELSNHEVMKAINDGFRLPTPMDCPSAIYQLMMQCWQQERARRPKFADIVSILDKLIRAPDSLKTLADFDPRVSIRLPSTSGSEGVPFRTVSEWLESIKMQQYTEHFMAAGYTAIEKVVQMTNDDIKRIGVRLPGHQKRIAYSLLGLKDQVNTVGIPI
T5 sequence (P12931 whole entry): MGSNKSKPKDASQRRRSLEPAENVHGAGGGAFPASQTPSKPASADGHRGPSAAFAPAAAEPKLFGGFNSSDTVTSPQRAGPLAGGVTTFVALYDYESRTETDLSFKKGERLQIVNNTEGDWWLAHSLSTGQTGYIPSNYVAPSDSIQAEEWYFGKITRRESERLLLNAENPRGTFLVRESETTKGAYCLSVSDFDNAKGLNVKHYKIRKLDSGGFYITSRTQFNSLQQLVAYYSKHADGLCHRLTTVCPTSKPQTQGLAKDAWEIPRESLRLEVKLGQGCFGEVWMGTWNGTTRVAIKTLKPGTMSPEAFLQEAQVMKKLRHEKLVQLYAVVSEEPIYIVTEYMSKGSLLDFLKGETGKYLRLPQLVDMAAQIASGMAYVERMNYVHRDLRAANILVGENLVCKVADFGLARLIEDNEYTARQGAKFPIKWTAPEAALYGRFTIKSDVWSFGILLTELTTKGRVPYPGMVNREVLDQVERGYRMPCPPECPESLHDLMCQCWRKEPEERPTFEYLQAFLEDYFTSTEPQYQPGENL
T4 sequence (P00519 whole entry): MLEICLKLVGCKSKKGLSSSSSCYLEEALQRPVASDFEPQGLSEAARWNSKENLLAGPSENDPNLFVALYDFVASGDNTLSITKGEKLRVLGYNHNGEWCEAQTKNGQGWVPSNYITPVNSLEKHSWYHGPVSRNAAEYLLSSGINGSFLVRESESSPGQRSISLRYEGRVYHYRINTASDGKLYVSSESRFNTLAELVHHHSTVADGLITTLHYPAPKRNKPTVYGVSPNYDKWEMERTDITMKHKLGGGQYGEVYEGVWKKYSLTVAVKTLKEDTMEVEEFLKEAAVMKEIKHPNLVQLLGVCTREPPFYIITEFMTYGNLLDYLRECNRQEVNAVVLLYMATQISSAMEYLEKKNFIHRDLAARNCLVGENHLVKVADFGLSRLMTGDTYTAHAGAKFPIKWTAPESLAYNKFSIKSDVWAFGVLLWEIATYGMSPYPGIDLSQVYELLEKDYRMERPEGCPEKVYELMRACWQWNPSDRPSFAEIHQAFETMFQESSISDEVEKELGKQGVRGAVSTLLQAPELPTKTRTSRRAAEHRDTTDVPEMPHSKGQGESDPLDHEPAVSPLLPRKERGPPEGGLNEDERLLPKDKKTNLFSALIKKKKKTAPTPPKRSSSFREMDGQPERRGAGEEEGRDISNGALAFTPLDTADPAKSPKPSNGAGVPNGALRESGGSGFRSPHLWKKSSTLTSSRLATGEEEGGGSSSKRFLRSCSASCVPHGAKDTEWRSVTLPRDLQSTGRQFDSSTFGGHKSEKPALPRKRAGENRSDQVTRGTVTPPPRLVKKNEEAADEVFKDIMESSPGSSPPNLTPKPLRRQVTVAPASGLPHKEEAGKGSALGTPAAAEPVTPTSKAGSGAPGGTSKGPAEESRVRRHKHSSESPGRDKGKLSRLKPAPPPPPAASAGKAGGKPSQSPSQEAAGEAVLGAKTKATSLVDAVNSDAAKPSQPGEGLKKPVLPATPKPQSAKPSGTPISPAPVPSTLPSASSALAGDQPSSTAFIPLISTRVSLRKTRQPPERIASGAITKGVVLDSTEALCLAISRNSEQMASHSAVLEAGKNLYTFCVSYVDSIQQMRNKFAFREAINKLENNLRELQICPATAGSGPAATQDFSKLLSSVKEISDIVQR
T3 sequence (Q9Y2K2 whole entry): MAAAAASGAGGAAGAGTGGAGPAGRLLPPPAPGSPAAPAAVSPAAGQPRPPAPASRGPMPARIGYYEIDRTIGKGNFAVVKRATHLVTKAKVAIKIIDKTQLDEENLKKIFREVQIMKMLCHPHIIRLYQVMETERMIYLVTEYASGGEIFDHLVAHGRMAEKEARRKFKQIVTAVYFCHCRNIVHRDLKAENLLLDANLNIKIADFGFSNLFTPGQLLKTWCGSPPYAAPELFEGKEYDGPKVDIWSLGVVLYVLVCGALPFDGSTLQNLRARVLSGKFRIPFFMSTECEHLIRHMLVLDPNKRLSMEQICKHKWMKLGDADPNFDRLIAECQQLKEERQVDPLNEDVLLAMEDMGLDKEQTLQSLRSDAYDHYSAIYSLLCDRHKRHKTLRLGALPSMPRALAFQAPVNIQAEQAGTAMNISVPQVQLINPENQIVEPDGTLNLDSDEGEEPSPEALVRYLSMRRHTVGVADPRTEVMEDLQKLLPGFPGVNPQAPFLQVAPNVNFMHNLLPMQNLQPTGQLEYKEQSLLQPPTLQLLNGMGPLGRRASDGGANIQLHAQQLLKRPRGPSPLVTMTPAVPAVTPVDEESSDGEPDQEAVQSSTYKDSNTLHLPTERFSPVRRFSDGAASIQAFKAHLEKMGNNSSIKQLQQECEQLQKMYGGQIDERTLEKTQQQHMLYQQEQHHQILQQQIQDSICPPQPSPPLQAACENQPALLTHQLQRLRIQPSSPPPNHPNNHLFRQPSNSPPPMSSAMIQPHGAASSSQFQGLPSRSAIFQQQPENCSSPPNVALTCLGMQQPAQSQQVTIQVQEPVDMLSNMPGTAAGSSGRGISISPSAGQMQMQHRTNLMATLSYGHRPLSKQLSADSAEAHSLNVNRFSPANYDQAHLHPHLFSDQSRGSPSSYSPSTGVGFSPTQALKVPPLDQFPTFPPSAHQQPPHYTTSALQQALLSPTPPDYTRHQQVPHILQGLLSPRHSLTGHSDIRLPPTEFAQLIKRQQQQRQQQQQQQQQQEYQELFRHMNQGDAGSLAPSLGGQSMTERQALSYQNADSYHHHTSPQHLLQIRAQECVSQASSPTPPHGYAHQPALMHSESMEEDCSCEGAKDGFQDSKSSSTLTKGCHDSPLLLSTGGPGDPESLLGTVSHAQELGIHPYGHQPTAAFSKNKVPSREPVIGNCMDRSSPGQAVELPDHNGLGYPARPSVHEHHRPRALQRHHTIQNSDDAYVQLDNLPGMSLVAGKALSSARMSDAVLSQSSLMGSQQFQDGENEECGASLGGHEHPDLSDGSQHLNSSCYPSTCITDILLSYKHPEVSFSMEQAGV

Regarding `Cc1cccc(F)c1-c1cc(N2CCC[C@@H](N(C)C)C2)c2cc(N)ncc2c1` [Example 84, 5-[(3R)-3-(dimethylamino)-1-piperidyl]-7-(2-fluoro-6-methyl-phenyl)isoquinolin-3-amine], the Ki on SIK2 is 0.0819 nM; on SIK1, 0.409 nM; on SIK3 it was 2.23 nM; on Abl, 49.4 nM; on Src, 274 nM; on EPHA2, above 1000 nM.

Regarding `Cc1cccc(F)c1-c1cc(NC[C@@H]2CCCCN2C)c2cc(N)ncc2c1` [Example 78, 7-(2-fluoro-6-methyl-phenyl)-N5-[[(2S)-1-methyl-2-piperidyl]methyl]isoq uinoline-3,5-diamine], the Ki at SIK2 worked out at 0.0935 nM; at SIK1, 0.433 nM; at SIK3 it was 1.6 nM; at Abl, 6.85 nM; on Src, 43.3 nM; at EPHA2, 119 nM.

Consider `Cc1cccc(F)c1-c1cc(N2CC[C@H](N(C)C)C2)c2cc(N)ncc2c1` [Example 59, 5-[(3S)-3-(dimethylamino)pyrrolidin-1-yl]-7-(2-fluoro-6-methyl-phenyl)isoquinolin-3-amine], for which the Ki on SIK2 was 2.87 nM; at SIK1 it was 15.3 nM; on SIK3, 27.4 nM; on Abl, 211 nM; on Src it was 2170 nM; on EPHA2 it was above 1000 nM.

Consider `Cc1cccc(F)c1-c1cc(NC[C@H]2CCCN(C)C2)c2cc(N)ncc2c1` [Example 77, 7-(2-fluoro-6-methyl-phenyl)-N5-[[(3R)-1-methyl-3-piperidyl]methyl] isoquinoline-3,5-diamine], for which the inhibitory constant (Ki) was 0.302 nM on SIK2; 1.13 nM at SIK1; 3.74 nM on SIK3; 26.5 nM on Abl; 197 nM on Src; 80.1 nM on EPHA2.

On to `Cc1cccc(F)c1-c1cc(NC2CCN(C)CC2)c2nc(N)ncc2c1` [Example 132, 6-(2-fluoro-6-methyl-phenyl)-N8-(1-methyl-4-piperidyl)quinazoline-2,8-diamine], for which the Ki on SIK2 came out at 0.0399 nM; at SIK1, 0.317 nM; on SIK3 it was 0.45 nM; at Abl, 8.63 nM; at Src, 46.3 nM; at EPHA2, 58.8 nM.

Turning to `Cc1cccc(F)c1-c1cc(C(=O)NC2CCN(C)CC2)c2cc(N)ncc2c1` [Example 116, 3-Amino-7-(2-fluoro-6-methyl-phenyl)-N-(1-methyl-4-piperidyl)isoquinoline-5-carboxamide], the Ki on SIK2 came out at 4.93 nM; on SIK1 it was 8.53 nM; on SIK3, 13.8 nM; at Abl, 16.7 nM; on Src it was 80.2 nM; at EPHA2, 47.4 nM.

Turning to `Cc1cccc(F)c1-c1cc(OC2CCN(C)CC2)c2cc(N)ncc2c1` [Example 101, 7-(2-Fluoro-6-methyl-phenyl)-5-[(1-methyl-4-piperidyl)oxy]isoquinolin-3-amine], the Ki at SIK2 was 0.0539 nM; at SIK1 it was 0.66 nM; at SIK3, 0.915 nM; at Abl, 59.1 nM; on Src, 134 nM; on EPHA2, above 100 nM.

`CNC[C@H]1CCCN(c2cc(-c3c(C)cccc3F)cc3cnc(N)cc23)C1` [Example 21, 7-(2-fluoro-6-methyl-phenyl)-5-[(3R)-3-(methylamino-methyl)-1-piperidyl]isoquinolin-3-amine]: the Ki at SIK2 turned out to be 0.274 nM; at SIK1, 0.594 nM; on SIK3, 9.36 nM; at Abl it was 10.5 nM; on Src, 50.4 nM; at EPHA2, 41.5 nM.

For the compound `Cc1cccc(F)c1-c1cc(N[C@@H]2CCCNC2)c2cc(N)ncc2c1` [Example 25, 7-(2-fluoro-6-methyl-phenyl)-N5-[(3R)-3-piperidyl]isoquinoline-3,5-diamine], the Ki on SIK2 is 0.132 nM; at SIK1, 0.546 nM; at SIK3, 1.28 nM; on Abl, 4.96 nM; at Src it was above 1000 nM; at EPHA2, above 1000 nM.

Regarding `Cc1cccc(F)c1-c1cc(NC2CCN(C)CC2)c2ccncc2n1` [Example 122, 2-(2-Fluoro-6-methyl-phenyl)-N-(1-methyl-4-piperidyl)-1,7-naphthyridin-4-amine], the Ki was 121 nM on SIK2; 266 nM at SIK1; 531 nM on SIK3; above 10000 nM at Abl; above 10000 nM at Src; above 10000 nM on EPHA2.

Consider `CC(=O)Nc1cc2c(NC3CCN(C)CC3)cc(-c3c(C)cccc3F)cc2cn1` [Example 115, N-[7-(2-Fluoro-6-methyl-phenyl)-5-[(1-methyl-4-piperidyl)amino]-3-isoquinolyl]acetamide], for which the inhibition constant Ki at SIK2 amounted to 0.0274 nM; at SIK1, 0.183 nM; at SIK3 it was 0.301 nM; at Abl it was 0.243 nM; on Src it was 0.974 nM; at EPHA2, 1.08 nM.

Consider `Cc1cccc(F)c1-c1cc(O[C@@H]2CCNC2)c2cc(N)ncc2c1` [Example 48, 7-(2-fluoro-6-methyl-phenyl)-5-[(3R)-pyrrolidin-3-yl]oxy-isoquinolin-3-amine], for which the Ki turned out to be 0.089 nM at SIK2; 0.338 nM at SIK1; 0.298 nM on SIK3; 22.6 nM on Abl; 320 nM on Src; 227 nM at EPHA2.

Consider `CN[C@@H]1CCCN(c2cc(-c3c(C)cccc3F)cc3cnc(N)cc23)C1` [Example 19, 7-(2-fluoro-6-methyl-phenyl)-5-[(3R)-3-(methylamino)-1-piperidyl]isoquinolin-3-amine], for which the Ki on SIK2 was 0.113 nM; at SIK1 it was 0.476 nM; on SIK3, 4.45 nM; at Abl, 24.6 nM; at Src, 306 nM; at EPHA2, above 1000 nM.

For the compound `Cc1cccc(F)c1-c1cc2cnc(N)cc2c(NC2CCN(C)CC2)c1F` [Example 135, 6-Fluoro-7-(2-fluoro-6-methyl-phenyl)-N5-(1-methyl-4-piperidyl)isoquinoline-3,5-diamine], the Ki came to 0.0936 nM on SIK2; 0.361 nM at SIK1; 0.312 nM at SIK3; 7.99 nM at Abl; 65.3 nM at Src; 30.7 nM on EPHA2.

For `Cc1cccc(F)c1-c1cc(N[C@H]2CCCN(C)C2)c2cc(N)ncc2c1` [Example 86, 7-(2-fluoro-6-methyl-phenyl)-N5-[(3S)-1-methyl-3-piperidyl] isoquinoline-3,5-diamine], the Ki at SIK2 was 0.0838 nM; at SIK1, 0.656 nM; at SIK3 it was 1.98 nM; at Abl, 6.72 nM; on Src, 34.3 nM; at EPHA2 it was 22.3 nM.

On to `CN[C@H]1CCCN(c2cc(-c3c(C)cccc3F)cc3cnc(N)cc23)C1` [Example 18, 7-(2-fluoro-6-methyl-phenyl)-5-[(3S)-3-(methylamino)-1-piperidyl]isoquinolin-3-amine], for which the Ki on SIK2 is 0.196 nM; at SIK1 it was 0.656 nM; at SIK3 it was 7.09 nM; on Abl, 1.88 nM; at Src, 53.4 nM; at EPHA2 it was 100 nM.

As for `Cc1cccc(F)c1-c1cc(NC2CCNCC2)c2cc(N)ncc2c1` [Example 1, 7-(2-Fluoro-6-methyl-phenyl)-N5-(4-piperidyl)isoquinoline-3,5-diamine], the Ki was determined as 0.0518 nM at SIK2; 0.364 nM at SIK1; 0.352 nM at SIK3; 16.3 nM on Abl; 153 nM at Src; 122 nM at EPHA2.

For `Cc1cccc(F)c1-c1cc(NC[C@H]2CCNC2)c2cc(N)ncc2c1` [Example 9, 7-(2-fluoro-6-methyl-phenyl)-N5-[[(3S)-pyrrolidin-3-yl]methyl]isoquinoline-3,5-diamine], the Ki stood at 0.0411 nM at SIK2; 0.316 nM at SIK1; 0.269 nM on SIK3; 0.687 nM at Abl; 217 nM on Src; 166 nM on EPHA2.

As for `Cc1cccc(Cl)c1-c1cc(NC2CCN(C)CC2)c2nc(N)ncc2c1` [Example 129, 6-(2-chloro-6-methyl-phenyl)-N8-(1-methyl-4-piperidyl)quinazoline-2,8-diamine], the Ki came out at 0.0784 nM on SIK2; 0.176 nM on SIK1; 0.339 nM on SIK3; 17.4 nM at Abl; 19.3 nM on Src; 18.1 nM at EPHA2.

Consider `Cc1cccc(F)c1-c1cc(NC2CN(C)C2)c2ccncc2c1` [Example 65, 7-(2-Fluoro-6-methyl-phenyl)-N-(1-methylazetidin-3-yl)isoquinolin-5-amine], for which the Ki at SIK2 was 0.716 nM; at SIK1, 3.73 nM; on SIK3, 4.57 nM; on Abl, 35.9 nM; at Src, 285 nM; at EPHA2, 264 nM.

For `CNC[C@@H]1CCCN(c2cc(-c3c(C)cccc3F)cc3cnc(N)cc23)C1` [Example 22, 7-(2-fluoro-6-methyl-phenyl)-5-[(3S)-3-(methylamino-methyl)-1-piperidyl]isoquinolin-3-amine], the Ki turned out to be 0.563 nM on SIK2; 1.67 nM at SIK1; 13.6 nM at SIK3; 46.6 nM on Abl; 304 nM on Src; 227 nM on EPHA2.

The record behind these values is US12637428B2, “Isoquinoline derivatives as SIK2 inhibitors” (Cancer Research Technology Limited, priority 2019, dated 2026).
